Test results: patent publication US20190350944A1, “NEUROACTIVE STEROID SOLUTIONS AND THEIR METHODS OF USE” (Sage Therapeutics, Inc., priority 2015, published 2019)

Experiment: Degradation pathway for allopregnanolone in SBECD formulations
Assay type: physicochemical
Excerpt: FIG. 1 summarizes the two major degradation pathways found for allopregnanolone in SBECD formulations.

CC(=O)[C@H]1CC[C@H]2[C@@H]3CC[C@H]4C[C@H](O)CC[C@]4(C)[C@H]3CC[C@]12C [allopregnanolone, 3 alpha-hydroxy-5 alpha-pregnan-20-one]
major degradation pathway (pH of ~6 or less): epimerization of allopregnanolone to compound 1269 | major degradation pathway (pH of ~6 or more): oxidation of allopregnanolone to compound 136
